Measurements published in patent US20020032176A1, “CARCINOGENESIS INHIBITORS” (priority 1996, published 2002).
Where two headings read alike, the source gives them in different places.

Assays:
[1] = test system: Epstein-Barr virus early antigens in Raji cells; assay type: cell-based, human; settings: 48 hours
Procedure: Epstein-Barr virus genome inactivating test is carried out as the first-stage screening test of anti-carcinogenesis promoter. In this test, inhibition of virus genome incident with tetradecanoylphorbolacetate (hereinafter called “TPA”) as its promoter, in a culture system of Raji cells is used as an indicator. The mentioned Raji cells are culture cells originated in species of […] lymph and holds Epstein-Barr virus genome inside. This method is not only rapid and quantitative but also available for detection of active substances in a small quantity.

papilloma on mouse skin = experiment: Two-stage carcinogenesis inhibitory test on mouse skin (DMBA initiation, TPA promotion); assay type: in vivo, ICR female mice; settings: for week after start of promotion on which the first tumor was formed: twice a week, positive control 7th week; for average number of tumors per mouse after 20 weeks: positive control 9.1; for carcinogenesis inhibitory effects (versus positive control tumors per mouse): 85 nmol test substance, after 20 weeks
Procedure: Body hair of one group of 15 ICR female mice (age 6 weeks) on their back were shaved and after 24 hours, applied (100 μg, 390 nmol) of 7,12-dimethylbenz[α]anthracene (hereinafter called “DMBA”) dissolved in acetone (0.1 ml) on their shaved skin of back as an initiation. Since one week later, each group of mice had been treated as follows:
First group: TPA (1 μg, 1.7 nmol) dissolved in acetone (0.1 ml) had been applied for 20 consecutive weeks, twice a week, as a promotion. During this treatment, additional acetone (0.1 ml) was applied on the same part one hour prior to each TPA application. (positive control group). […]
Until the 20th week since the start of a promotion by TPA application, incidence of papilloma on back of mice had been observed once a week. And the rate of mice with papilloma incidence and the average number of papilloma incidence per mouse were evaluated based on the comparison of the positive control group and the second group.
Body hair of one group of 15 ICR female mice (age 6 weeks) on their back were shaved and after 24 hours, applied ([…], 390 nmol) of 7,12-dimethylbenz[α]anthracene (hereinafter called “DMBA”) dissolved in acetone (0.1 ml) on their shaved skin of back as an initiation. Since one week later, each group of mice had been treated as follows:
Second-Fourth group: As the first group, TPA (1 μg, 1.7 nmol) dissolved in acetone (0.1 ml) had been applied for 20 consecutive weeks, twice a week, as a promotion but 85 nmol of test substance (capsanthin group) dissolved in acetone(0.1 ml) (separated by removing methanol extracts solvent), was applied one hour prior to each application instead of additional acetone. Each test substance was for Second group: Capsanthin, Third group: Capsanthin monoester, Fourth group: Capsanthin diester

Raji cells = settings: 1000 Mol ratio/TPA (20 ng = 32 pmol/ml); 48 hours
Procedure: Measurement conditions of inactivation of Epstein-Barr virus genome incidence, using the acetone extracts and the hexane extracts, are as follows. PRMI1640 added embryonic serums and antibiotics are used as the culture liquid of Raji cells, virus latent infection-human lymphotropic bulbous cells. Under this culture conditions, the rate of natural incidence of Epstein-Barr virus of early antigens are not more than 0.1%. Raji cells, adjusted at the concentration of 1×10^6 cell/ml is cultured for 48 hours at 37° C. in the above described culture liquid after adding 4 mM of n-butyric acid, 20 ng/ml of TPA and 100 μg/ml of test substance. Then cells which generated Epstein-Barr virus early antigens are detected in the indirect immunofluorescence method using serums from epipharynx cancer patients. The ratio of positive cells calculated against the control without adding testisubstance is regarded as inactivation of virus genome incidence. In addition, the same inactivation were measured as varying the concentration of the test substance to 10, μg/ml and 1 μg/ml.

[2] = 10 Mol ratio/TPA (20 ng = 32 pmol/ml)
[3] = 100 Mol ratio/TPA (20 ng = 32 pmol/ml)
[4] = 500 Mol ratio/TPA (20 ng = 32 pmol/ml)
[5] = 1000 Mol ratio/TPA (20 ng = 32 pmol/ml)
[6] = 85 nmol test substance on skin one hour prior to each TPA application

| Compound | % inhibitory rate [1, 2] [%] | % inhibitory rate [1, 3] [%] | % inhibitory rate [1, 4] [%] | % inhibitory rate [1, 5] [%] | week after start of promotion on which the first tumor was formed (papilloma on mouse skin; [6]) [week] | average number of tumors per mouse after 20 weeks (papilloma on mouse skin; [6]) | carcinogenesis inhibitory effects (versus positive control tumors per mouse) (papilloma on mouse skin) | % survival rate of Raji cells (Raji cells) [%] | mice still free from tumor formation at the end of the 20-week experiment (papilloma on mouse skin; 85 nmol test substance on skin one hour prior to each TPA application, 20 weeks) [%] |
| --- | --- | --- | --- | --- | --- | --- | --- | --- | --- |
| CC1=C(/C=C/C(C)=C/C=C/C(C)=C/C=C/C=C(C)/C=C/C=C(C)/C=C/C(=O)[C@]2(C)C[C@@H](O)CC2(C)C)C(C)(C)C[C@H](O)C1 [Capsanthin, capsanthin] | 0 | 17.6 | 59.7 | 91.4 | 7 | 7.2 | approximately 23% | 70 |  |
| CC(/C=C/C=C(C)/C=C/C(=O)[C@]1(C)C[C@@H](O)CC1(C)C)=C\C=C\C=C(C)\C=C\C=C(C)\C=C\[C@@]12O[C@@H](CC1(C)C)C[C@@]2(C)O [Capsantlim 3,6-epoxide, capsanthin 3,6-epoxide] | 5.4 | 20.8 | 67.2 | 100 |  |  |  | 70 |  |
| CC1=C(/C=C/C(C)=C/C=C/C(C)=C/C=C/C=C(C)/C=C/C=C(C)/C=C/C2=C(C)CCCC2(C)C)C(C)(C)CCC1 [β-Carotene, reference compound] | 0 | 10.6 | 75.0 | 97.5 |  |  |  | 70 |  |
| capsanthin diester | 9.6 | 30.7 | 75.5 | 100 | 9 | 4.5 | ~45% | 70 | 13.3 |
| capsanthin monoester | 4.1 | 26.6 | 68.4 | 96.8 | 9 | 6,5 | ~31% | 70 |  |
| capsorubin | 0 | 19.9 | 64.1 | 100 |  |  |  | 70 |  |
| capsorubin diester | 7.2 | 28.0 | 73.9 | 100 |  |  |  | 70 |  |
| cucurbitaxanthin A-3′ esters [Cucurbitaxanthin-A-3′-ester] | 0 | 13.8 | 61.0 | 100 |  |  |  | 70 |  |
